Test results taken from patent US20250326765A1, “PDE4B INHIBITOR AND USE THEREOF” (XIZANG HAISCO PHARMACEUTICAL CO., LTD., priority 2022, published 2025).
Values belong to the molecule of their own block, whether it stands above or below them.

Legend:
[1] = Pharmacokinetic test in beagle dogs; assay type: in vivo
Experimental: 6.1 Experimental animals: male beagle dogs, about 8-11 kg, 6 beagle dogs/compound, purchased from Beijing Marshall Biotechnology Co., Ltd.
6.2 Experimental method: On the day of the experiment, 18 beagle dogs were randomly grouped according to their body weights. The animals were fasted with water available for 12-14 h one day before administration and fed 4 h after administration. Administration was carried out according to Table 8.
Before and after administration, 1 ml of blood was taken from the jugular vein or limb vein and placed in an EDTAK2 centrifuge tube. Centrifugation was carried out at 5000 rpm at 4° C. for 10 min, and plasma was collected. The blood collection time points for the intravenous group and intragastric group were both 0 min, 5 min, 15 min, 30 min, 1 h, 2 h, 4 h, 6 h, 8 h, 10 h, 12 h, 24 h, 48 h, and 72 h. Before analysis and detection, all the samples were stored at −80° C., and the samples were subjected to quantitative analysis using LC-MS/MS.

[2] = Pharmacokinetic test in monkeys; assay type: in vivo, cynomolgus monkeys
Experimental: Experimental animals: Male cynomolgus monkeys, 3-5 kg, 3-6 years old, 6 monkeys/compound. Purchased from Suzhou Xishan Biotechnology Inc.
Experimental method: On the day of the experiment, 12 monkeys were randomly grouped according to their body weights. The animals were fasted with water available for 14-18 h one day before administration and fed 4 h after administration.
Before and after administration, 1.0 mL of blood sample was taken from the limb vein and placed in an EDTAK2 centrifuge tube. Centrifugation was carried out at 5000 rpm at 4° C. for 10 min, and plasma was collected. The blood collection time points for the intravenous group were 0 min, 5 min, 15 min, 30 min, 1 h, 2 h, 4 h, 6 h, 8 h, 10 h, 12 h, and 24 h. Before analysis and detection, all the samples were stored at −80° C., and the samples were subjected to quantitative analysis using LC-MS/MS.

[3] = Inhibition of LPS-induced TNF-α release from human peripheral blood mononuclear cells in vitro; assay type: cell-based; conditions: PBMC, hPBMC, 100 ng/mL LPS, 4 h; for IC50: class symbols, read-out: Re IC50 (nM) (relative IC50), TNF-α induced by LPS
Experimental: Normal human peripheral blood which was anticoagulated (citric acid anticoagulation) was collected, and hPBMCs were prepared by Ficoll-Paque PLUS (Cytiva, Cat #17144002, density 1.077 g/mL). The concentration of hPBMC cells was adjusted to 0.25×10^6 cells/mL with RPMI1640 medium and inoculated into a 96-well plate in an amount of 50000 cells per well. Subsequently, different concentrations of drugs were added for pre-incubation for 1 h (the DMSO final concentration was 0.1%, and the positive and negative control wells had the same volume of RPMI1640 containing 0.1% DMSO). After the pre-incubation was complete, 100 ng/mL LPS (SIGMA, L2630) was added to the compound and positive control wells, and the negative control well had the same volume of RPMI1640 containing 0.1% DMSO. Incubation was carried out for 4 h in an incubator at 37° C. and 5% CO2. The cell supernatant was collected, and the content of TNF-α in the supernatant sample was detected by human TNF-α Elisa quantitative test kit (Sino Biological, Cat #KIT10602). The IC50 value was calculated using GraphPad Prism software.

[4] = Pharmacokinetic test in mice; assay type: in vivo, ICR mice
Experimental: 5.1 Experimental animals: Male ICR mice, 20-25 g, 6 mice/compound. Purchased from Chengdu Ddossy Experimental Animals Co., Ltd.
5.2 Experimental design: On the day of the experiment, 42 ICR mice were randomly grouped according to their body weights. The animals were fasted with water available for 12-14 h one day before administration and fed 4 h after administration.
Before and after administration, 0.06 mL of blood was taken from the orbit under isoflurane anesthesia and placed in an EDTAK2 centrifuge tube for centrifugation at 5000 rpm at 4-C for 10 min, followed by plasma collection. The blood collection time points for the intravenous group and intragastric group were both 0 m, 5 mi, 15 mi, 30 mi, 1 h, 2 h, 4 h, 6 h, 8 h, and 24 h. Before analysis and detection, all the samples were stored at −80° C., and the samples were subjected to quantitative analysis using LC-MS/MS.

[5] = male, dog, iv, plasma, i.v. (1 mg/kg)
[6] = male, dog, po, plasma, i.g. (5 mg/kg)
[7] = male, cynomolgus monkey, iv, plasma, i.v. (1 mg/kg)
[8] = male, ICR, mouse, iv, plasma, i.v. (5 mg/kg)
[9] = male, ICR, mouse, po, plasma, i.g. (10 mg/kg)

F ([1]; i.g. (5 mg/kg)): ≥98%
AUC(0-t) [1, 5]: 7070 ± 3250 ng·h/mL
clearance [1, 5]: 2.69 ± 1.7 mL/min/kg
half-life [1, 5]: 351 ± 37.8 min
Vd ([1]; male, dog, iv, plasma, i.v. (1 mg/kg), read-out: Vdss): 0.957 ± 0.37 L/kg
AUC(0-t) [1, 6]: 26100 ± 11900 ng·h/mL
half-life [1, 6]: 443 ± 72 min
F ([2]; i.g. (3 mg/kg)): 30.9 ± 13%
AUC(0-t) [2, 7]: 8550 ± 664 ng·h/mL
clearance [2, 7]: 1.95 ± 0.15 mL/min/kg
Vd ([2]; male, cynomolgus monkey, iv, plasma, i.v. (1 mg/kg), read-out: Vdss): 0.888 ± 0.16 L/kg
AUC(0-t) ([2]; male, cynomolgus monkey, po, plasma, i.g. (3 mg/kg)): 7930 ± 3240 ng·h/mL
IC50 [3]: 50 to 100 nM
SMILES: [O-][S@+]1CCc2nc(N3C[C@H]4CN(c5ccc6c(c5)CC6)C[C@H]4C3)nc(NC3(CO)CCC3)c21 [Compound 31]
Emax ([3]; read-out: Max inhibition (%)): 75.4%

F ([4]; i.g. (10 mg/kg)): ≥98%
AUC(0-t) [4, 8]: 6000 ± 1090 ng·h/mL
clearance [4, 8]: 7.03 ± 1.1 mL/min/kg
half-life [4, 8]: 200 ± 18 min
Vd ([4]; male, ICR, mouse, iv, plasma, i.v. (5 mg/kg), read-out: Vdss): 1.3 ± 0.086 L/kg
AUC(0-t) [4, 9]: 26900 ± 3910 ng·h/mL
half-life [4, 9]: 258 ± 41.4 min
IC50 [3]: < 10 nM
SMILES: C#Cc1cnc(C2=CCN(c3nc4c(c(NC5(CO)CCC5)n3)[S+]([O-])CC4)CC2)nc1 (stereo not shown) [Compound 37]
